In the NIST ThermoML archive (doi:10.1021/je030147g):

Key:
[1] = xn = mol fraction of the nth substance listed; settings: 101.33 kPa, Liquid
[2] = refractive index (Na D-line) (dimensionless); xn = mol fraction of the nth substance listed; settings: 101.33 kPa, Liquid

CCN(CC)CC [triethylamine] + CCCCN(CCCC)CCCC
x2 = 0
Settings	mass density, 298.15 K [kg/m3]	mass density, 303.15 K [kg/m3]	mass density, 308.15 K [kg/m3]	refractive index, 298.15 K	refractive index, 303.15 K	refractive index, 308.15 K	speed of sound, 298.15 K [m/s]	viscosity, 298.15 K [mPa·s]	viscosity, 303.15 K [mPa·s]	viscosity, 308.15 K [mPa·s]
[1]	723.3	718.6	713.7	–	–	–	1123	0.367	0.349	0.332
[2]	–	–	–	1.3992	1.3958	1.3929	–	–	–	–

CCCCN(CCCC)CCCC [tributylamine] + c1ccncc1
Settings	mass density, 298.15 K [kg/m3]	mass density, 303.15 K [kg/m3]	mass density, 308.15 K [kg/m3]	refractive index, 298.15 K	refractive index, 303.15 K	refractive index, 308.15 K	speed of sound, 298.15 K [m/s]	viscosity, 298.15 K [mPa·s]	viscosity, 303.15 K [mPa·s]	viscosity, 308.15 K [mPa·s]
[1], x1 = 0.0977	927.2	922.3	917.4	–	–	–	1363	0.895	0.833	0.771
[1], x1 = 0.1951	890.5	885.6	880.7	–	–	–	1333	0.914	0.849	0.783
[1], x1 = 0.2949	862.6	858	853.3	–	–	–	1308	0.941	0.872	0.804
[1], x1 = 0.3938	841.3	836.8	832.2	–	–	–	1290	0.971	0.898	0.825
[1], x1 = 0.4898	824.7	820.3	815.9	–	–	–	1282	1.002	0.925	0.848
[1], x1 = 0.5884	810.8	806.5	802.1	–	–	–	1278	1.038	0.957	0.876
[1], x1 = 0.6899	799	794.7	790.5	–	–	–	1275	1.077	0.993	0.909
[1], x1 = 0.7846	789.9	785.7	781.6	–	–	–	1271	1.122	1.031	0.94
[1], x1 = 0.8869	781.6	777.5	773.3	–	–	–	1266	1.175	1.077	0.979
[1], x1 = 1	773.9	769.2	765.7	–	–	–	1262	1.239	1.124	1.028
[2], x1 = 0.0977	–	–	–	1.4866	1.483	1.4795	–	–	–	–
[2], x1 = 0.1951	–	–	–	1.4708	1.4685	1.4662	–	–	–	–
[2], x1 = 0.2949	–	–	–	1.4606	1.4574	1.4542	–	–	–	–
[2], x1 = 0.3938	–	–	–	1.4513	1.4491	1.447	–	–	–	–
[2], x1 = 0.4898	–	–	–	1.4464	1.4428	1.4392	–	–	–	–
[2], x1 = 0.5884	–	–	–	1.4403	1.4376	1.4348	–	–	–	–
[2], x1 = 0.6899	–	–	–	1.4359	1.4335	1.4311	–	–	–	–
[2], x1 = 0.7846	–	–	–	1.4333	1.43	1.4268	–	–	–	–
[2], x1 = 0.8869	–	–	–	1.4303	1.4277	1.4252	–	–	–	–
[2], x1 = 1	–	–	–	1.4276	1.4255	1.4228	–	–	–	–

C1CCOC1 [tetrahydrofuran] + CCCCN(CCCC)CCCC
x2 = 0
Settings	mass density, 298.15 K [kg/m3]	mass density, 303.15 K [kg/m3]	mass density, 308.15 K [kg/m3]	refractive index, 298.15 K	refractive index, 303.15 K	refractive index, 308.15 K	speed of sound, 298.15 K [m/s]	viscosity, 298.15 K [mPa·s]	viscosity, 303.15 K [mPa·s]	viscosity, 308.15 K [mPa·s]
[1]	882.9	877.5	871.2	–	–	–	1288	0.485	0.46	0.439
[2]	–	–	–	1.4049	1.4026	1.3998	–	–	–	–
